Literature values, collected in patent publication US20220184234A1, “METABOLIC TARGETING OF LOW GRADE TUMORS” (SonalaSense, Inc., priority 2020, published 2022).

Test system: tumor
[1] = all experimental groups (5-ALA and FUS)

In the case of `NCC(=O)CCC(=O)O` [5-ALA, 5-aminolevulinic acid], the normalized tumor volume (5-ALA only group (no FUS), untreated controls 32±10 mm^3) is given as 24±6 mm^3, the “subjects surviving past 60 days” value (5-ALA, group sonicated at multiple points within the tumor (MP group)) is given as 50% and the “survival compared to control animals” value [1] is given as “improved survival”. The “tumor growth compared to control animals” value [1] was “inhibited tumor growth” and the tissue damage (rats, 20 mg/kg 5-ALA, sonication at 55.2 W/cm^2 for 20 minutes) was “suffered tissue damage”.
